Measurements taken from the NIST ThermoML archive (doi:10.1021/acs.jced.8b00589).

Assay: xn = mol fraction of the nth substance listed
Conditions: for surface tension liquid-gas: Ring tensiometer; for viscosity / speed of sound / mass density: 100 kPa, Liquid; for viscosity: Capillary tube (Ostwald / Ubbelohde) method; for speed of sound: Frequency=2 MHz, Linear variable-path acoustic interferometer; for mass density: Vibrating tube method

CCC(C)(C)OC [2-methoxy-2-methylbutane] + CCCCCC
Conditions	mass density [kg/m3]	speed of sound [m/s]	surface tension liquid-gas [mN/m]	viscosity [mPa·s]
298.15 K, x1 = 0.1632	672.8	1077.8	17.99	0.311
298.15 K, x1 = 0.2584	683.2	1082.2	18.21	0.318
298.15 K, x1 = 0.3742	695.5	1087.5	18.5	0.327
298.15 K, x1 = 0.4276	701.6	1088.6	18.62	0.331
298.15 K, x1 = 0.5464	714.8	1092.8	18.73	0.346
298.15 K, x1 = 0.6121	722.3	1096.1	18.88	0.356
298.15 K, x1 = 0.7457	737.2	1103.5	19.15	0.381
298.15 K, x1 = 0.8625	750.1	1112.2	19.42	0.402
298.15 K, x1 = 1	765.6	1118	19.72	0.424
308.15 K, x1 = 0.1632	663.2	1035.5	16.88	0.274
308.15 K, x1 = 0.2584	673.8	1039.4	17.1	0.281
308.15 K, x1 = 0.3742	686.5	1045.1	17.4	0.293
308.15 K, x1 = 0.4276	692.3	1046.8	17.52	0.298
308.15 K, x1 = 0.5464	705.2	1049.6	17.64	0.313
308.15 K, x1 = 0.6121	712.5	1053.2	17.79	0.322
308.15 K, x1 = 0.7457	727.4	1060.4	18.07	0.342
308.15 K, x1 = 0.8625	740.7	1069.2	18.35	0.362
308.15 K, x1 = 1	756.3	1075.6	18.66	0.39
318.15 K, x1 = 0.1632	653.5	984.7	15.78	0.249
318.15 K, x1 = 0.2584	663.8	988.75	16.01	0.256
318.15 K, x1 = 0.3742	676.6	994.36	16.33	0.266
318.15 K, x1 = 0.4276	682.4	996.61	16.46	0.271
318.15 K, x1 = 0.5464	695.3	1002.4	16.58	0.284
318.15 K, x1 = 0.6121	702.5	1006.8	16.74	0.292
318.15 K, x1 = 0.7457	717.7	1013.8	17.03	0.311
318.15 K, x1 = 0.8625	730.6	1022.8	17.32	0.331
318.15 K, x1 = 1	746.3	1030.2	17.65	0.357
323.15 K, x1 = 0.1632	648.6	963.82	15.22	0.239
323.15 K, x1 = 0.2584	658.8	967.24	15.47	0.245
323.15 K, x1 = 0.3742	671.5	971.83	15.78	0.254
323.15 K, x1 = 0.4276	677.3	973.34	15.92	0.258
323.15 K, x1 = 0.5464	690.4	977.27	16.04	0.27
323.15 K, x1 = 0.6121	697.6	980.49	16.2	0.277
323.15 K, x1 = 0.7457	712.5	984.8	16.5	0.294
323.15 K, x1 = 0.8625	725.8	994.84	16.8	0.312
323.15 K, x1 = 1	741.4	1003	17.13	0.335
328.15 K, x1 = 0.1632	643.6	942.3	14.67	0.23
328.15 K, x1 = 0.2584	653.7	945.14	14.92	0.235
328.15 K, x1 = 0.3742	666.5	949.52	15.24	0.244
328.15 K, x1 = 0.4276	672.3	951.24	15.38	0.248
328.15 K, x1 = 0.5464	685.3	955.05	15.5	0.259
328.15 K, x1 = 0.6121	692.6	958.72	15.67	0.266
328.15 K, x1 = 0.7457	707.5	963.63	15.97	0.283
328.15 K, x1 = 0.8625	720.8	974.08	16.27	0.301
328.15 K, x1 = 1	736.5	985.22	16.62	0.323

CCC(C)(C)OC [2-methoxy-2-methylbutane] + Cc1cccc(C)c1
Conditions	mass density [kg/m3]	speed of sound [m/s]	surface tension liquid-gas [mN/m]	viscosity [mPa·s]
298.15 K, x1 = 0.1462	844.1	1299	26.87	0.561
298.15 K, x1 = 0.2667	833.4	1269.4	25.84	0.541
298.15 K, x1 = 0.4165	821.1	1235	24.69	0.519
298.15 K, x1 = 0.4774	816.2	1218.9	24.24	0.51
298.15 K, x1 = 0.5331	811.4	1205.2	23.82	0.502
298.15 K, x1 = 0.6068	805.3	1189.2	23.22	0.491
298.15 K, x1 = 0.7371	794.6	1165.8	22.07	0.47
298.15 K, x1 = 0.8642	782.7	1138	20.93	0.447
298.15 K, x1 = 1	765.6	1118	19.72	0.424
308.15 K, x1 = 0.1462	833.6	1254.4	25.64	0.501
308.15 K, x1 = 0.2667	822.5	1220.7	24.62	0.485
308.15 K, x1 = 0.4165	810.2	1182.3	23.47	0.468
308.15 K, x1 = 0.4774	805.1	1167	23.02	0.461
308.15 K, x1 = 0.5331	800.3	1155.1	22.61	0.454
308.15 K, x1 = 0.6068	794.4	1140.5	22.06	0.445
308.15 K, x1 = 0.7371	783.3	1118.1	20.94	0.428
308.15 K, x1 = 0.8642	771.8	1092.8	19.83	0.409
308.15 K, x1 = 1	756.3	1075.6	18.66	0.39
318.15 K, x1 = 0.1462	823.8	1209.3	24.36	0.46
318.15 K, x1 = 0.2667	813.1	1174.2	23.37	0.445
318.15 K, x1 = 0.4165	800.2	1134.5	22.25	0.428
318.15 K, x1 = 0.4774	794.8	1118.7	21.81	0.421
318.15 K, x1 = 0.5331	790.4	1105.4	21.41	0.415
318.15 K, x1 = 0.6068	784.1	1090.6	20.9	0.407
318.15 K, x1 = 0.7371	772.8	1067.2	19.83	0.391
318.15 K, x1 = 0.8642	761.3	1045.9	18.77	0.374
318.15 K, x1 = 1	746.3	1030.2	17.65	0.357
323.15 K, x1 = 0.1462	819.2	1186.3	23.73	0.424
323.15 K, x1 = 0.2667	808	1150.5	22.75	0.412
323.15 K, x1 = 0.4165	795.3	1107.7	21.65	0.399
323.15 K, x1 = 0.4774	789.8	1090.3	21.21	0.393
323.15 K, x1 = 0.5331	785.1	1076.2	20.82	0.389
323.15 K, x1 = 0.6068	778.8	1061.4	20.32	0.382
323.15 K, x1 = 0.7371	767.7	1037.8	19.27	0.369
323.15 K, x1 = 0.8642	755.8	1017	18.23	0.354
323.15 K, x1 = 1	741.4	1003	17.13	0.34
328.15 K, x1 = 0.1462	814.4	1160.6	23.1	0.414
328.15 K, x1 = 0.2667	803.3	1124	22.14	0.401
328.15 K, x1 = 0.4165	790.5	1082.2	21.05	0.387
328.15 K, x1 = 0.4774	785.2	1065.1	20.62	0.382
328.15 K, x1 = 0.5331	780.3	1051.8	20.23	0.377
328.15 K, x1 = 0.6068	773.7	1037.4	19.73	0.37
328.15 K, x1 = 0.7371	762.6	1013.9	18.71	0.357
328.15 K, x1 = 0.8642	750.8	995.44	17.69	0.342
328.15 K, x1 = 1	736.5	985.2	16.62	0.328
